# Measurements as given in US9643967B2, “Pyrrolo[3,2-c]pyridine derivatives as TLR inhibitors” (TAKEDA PHARMACEUTICAL COMPANY LIMITED, priority 2013, dated 2017).
# Like-named read-outs stand apart in the source and are kept apart here.
# Biological target: T1, mTLR7 (Mus musculus, UniProt P58681)
# T1 construct: Splenocytes isolated from male C57/BL6 mice; from tissue; host or cells: splenocytes from the spleen of male C57BL/6 mice
# T1 sequence (P58681 27-1050): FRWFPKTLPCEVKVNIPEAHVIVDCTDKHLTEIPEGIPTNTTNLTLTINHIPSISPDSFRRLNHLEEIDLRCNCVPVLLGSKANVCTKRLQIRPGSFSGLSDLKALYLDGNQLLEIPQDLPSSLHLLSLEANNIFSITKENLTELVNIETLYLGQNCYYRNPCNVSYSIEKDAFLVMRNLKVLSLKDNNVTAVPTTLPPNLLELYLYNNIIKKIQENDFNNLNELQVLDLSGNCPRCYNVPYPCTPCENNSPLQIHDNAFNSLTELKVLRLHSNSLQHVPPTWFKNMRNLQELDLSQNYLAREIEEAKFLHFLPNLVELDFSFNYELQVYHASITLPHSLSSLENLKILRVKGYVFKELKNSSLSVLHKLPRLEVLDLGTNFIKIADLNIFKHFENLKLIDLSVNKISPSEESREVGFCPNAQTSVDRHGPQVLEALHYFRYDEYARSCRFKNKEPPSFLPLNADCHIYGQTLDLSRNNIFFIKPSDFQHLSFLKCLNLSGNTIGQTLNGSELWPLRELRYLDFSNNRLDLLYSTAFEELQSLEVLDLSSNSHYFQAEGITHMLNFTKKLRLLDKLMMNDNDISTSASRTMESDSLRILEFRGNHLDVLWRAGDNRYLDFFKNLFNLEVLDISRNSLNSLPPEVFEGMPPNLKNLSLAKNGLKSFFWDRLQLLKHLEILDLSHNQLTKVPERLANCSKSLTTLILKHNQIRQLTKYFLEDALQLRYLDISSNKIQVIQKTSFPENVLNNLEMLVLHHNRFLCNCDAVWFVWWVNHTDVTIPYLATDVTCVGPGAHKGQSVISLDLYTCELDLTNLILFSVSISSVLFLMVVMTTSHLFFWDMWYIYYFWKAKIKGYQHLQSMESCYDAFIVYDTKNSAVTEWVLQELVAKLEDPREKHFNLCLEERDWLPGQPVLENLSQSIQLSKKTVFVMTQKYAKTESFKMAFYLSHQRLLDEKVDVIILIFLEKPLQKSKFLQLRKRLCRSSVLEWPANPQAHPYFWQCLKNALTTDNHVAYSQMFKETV
# Assay: mTLR7 antagonism (IL-6 and TNF-α release assay) in mouse splenocytes, R0006/DOTAP stimulated
# Assay type: cell-based
# Source text: mTLR9 and mTLR7 Antagonism (Cytokine Release Assay) in Mouse Splenocytes
# TLR7 ligand R0006 (IDT, 5′-rU*rU*rG*rU*rU*rG*rU*rU*rG*rU*rU*rG*rU*rU*rG*rU*rU*rG*rU*rU-3′ (SEQ ID NO:1)), Liposomal transfection reagent—DOTAP (Roche, Cat. No. 11202375001), TLR9 ligand CpG ODN2006 (Sequence: T*C*G*T*C*G*T*T*T*T*G*T*C*G*T*T*T*T*G*T*C*G*T*T; *=phosphorothioate (SEQ ID NO:2)) DMSO (Sigma, D2650), RPMI Powder (Sigma, R6504), Fetal Bovine Serum (Gibco, 10270), Dulbecco's Phosphate Buffered Saline (Sigma, D1408), 96 well plate (Flat bottom, Costar 3599), ELISA kit for IL-6 (EBioscience, 88-7064-77 and TNFa (EBioscience, 88-7346-88), MACS Buffer (AutoMACS Rinsing Solution (Miltenyl Biotec, 130-091-222)+0.05% BSA), RBC lysis buffer (0.85% NH4Cl), 40 μm cell strainer (BD Falcon, 352340) Method: A. Isolation of Mouse Splenocytes
# Mouse spleen was isolated from C57BL6 mouse and stored in 1× chilled PBS buffer until further processed. Spleen was transferred to a sterile petriplate and chopped in to 5-6 pieces in presence of MACS buffer (100 μl) with the help of fresh surgical blade and crushed with flat plunger of a sterile syringe. A uniform suspension was prepared by passing cells through a 40 μm cell strainer. Cells were centrifuged at 450×g for 5 minutes at 4° C., supernatant was discarded and pellet dislodged gently, resuspended in 2 ml of pre-warmed (37° C.) RBC lysis buffer at room temperature with continuous gentle mixing with 1 ml pipette. Lysis buffer was neutralized with 12 ml of chilled MACS buffer and cells were passed through 40 μm cell strainer. Cell suspension was collected in 15 ml MACS buffer and centrifuged at 450×g for 5 minutes at 4° C. Pellet was resuspended in 15 ml MACS buffer and centrifuged at 400×g for 5 minutes. Cells were resuspended in 10 ml of RPMI complete medium and viability was estimated by Trypan blue method.
# mTLR7 Antagonism (IL-6 and TNF-α Release Assay):
# 1 mg/ml stock of R0006 was prepared in sterile, endotoxin-free water. R0006 stock was diluted 10 fold with DOTAP and incubated for 30 minutes to form liposome complex (100 μg/ml of R0006). This complex was further diluted 10 fold with incomplete RPMI media (10 μg/ml of R0006) to achieve the final agonist concentration of 1 μg/ml. DOTAP alone was diluted 10 fold in incomplete RPMI media. NCEs were added in a concentration range of 30 μM to 1 nM in respective wells of assay plate, assay medium containing 0.3% DMSO were added to control wells. 0.2 million splenocytes were added to all the wells and incubated at 37° C. in 5% CO2 incubator for 30 minutes. 1 μg/ml of respective agonist was added to all the wells except those were assigned as negative controls and mixed thoroughly. DOTAP was added to negative control wells and incubated overnight at 37° C./5% CO2. The plate was centrifuged at 450×g for 5 minutes at room temperature and the supernatant was collected. ELISA was performed as per manufacturer's protocol. S/B Ratio, % Activity and % Inhibition was calculated using MS Excel. IC50 and inhibition curve was generated using Graph Pad Prism.
# [1] = 1 μM, TNF-α release, mouse splenocytes, read-out: mTLR7 inhibitory activity (% at 1 μM), TNF-α
# [2] = 1 μM, IL-6 release, mouse splenocytes, read-out: mTLR7 inhibitory activity (% at 1 μM), IL-6
inhibition at 1 µM [1] [%],inhibition at 1 µM [2] [%],SMILES,"inhibition at 1 µM (read-out: mTLR7 inhibitory activity (% at 1 μM), IL-6) [%]","inhibition at 1 µM (read-out: mTLR7 inhibitory activity (% at 1 μM), TNF-α) [%]"
32,–,"CC(C)N1CCN(c2ccc(-c3nccc4[nH]c(CN5CCC[C@@H]5C(=O)O)cc34)cc2)CC1 [Example A74, (2R)-1-[[4-[4-(4-isopropylpiperazin-1-yl)phenyl]-1H-pyrrolo[3,2-c]pyridin-2-yl]methyl]pyrrolidine-2-carboxylic acid]",–,–
16,18,"CC(C)N1CCN(C2CCC(c3nccc4[nH]c(CN5CCOCC5)cc34)CC2)CC1 (centres unmarked) [Example A80, 4-[[4-[4-(4-isopropylpiperazin-1-yl)cyclohexyl]-1H-pyrrolo[3,2-c]pyridin-2-yl]methyl]morpholine]",–,–
24,25,"c1cc2[nH]c(CN3CCOCC3)cc2c(-c2ccc(N3CCN(C4COC4)CC3)cc2)n1 [Example A81, 4-[[4-[4-[4-(oxetan-3-yl)piperazin-1-yl]phenyl]-1H-pyrrolo[3,2-c]pyridin-2-yl]methyl]morpholine]",–,–
–,–,"CC(C)N1CCN(c2ccc(-c3nccc4[nH]c(C(=O)N5CCOCC5)cc34)cc2)CC1 [Example A82, [4-[4-(4-isopropylpiperazin-1-yl)phenyl]-1H-pyrrolo[3,2-c]pyridin-2-yl]-morpholino-methanone]",86,24
100,100,"CC(C)N1CCN(c2ccc(-c3nccc4[nH]c(CCN5CCOCC5)cc34)cc2)CC1 [Example B1, 4-[2-[4-[4-(4-isopropylpiperazin-1-yl)phenyl]-1H-pyrrolo[3,2-c]pyridin-2-yl]ethyl]morpholine]",–,–
100,100,"CN1CCN(c2ccc(-c3nccc4[nH]c(CCN5CCOCC5)cc34)cc2)CC1 [Example B2, 4-[2-[4-[4-(4-methylpiperazin-1-yl)phenyl]-1H-pyrrolo[3,2-c]pyridin-2-yl]ethyl]morpholine]",–,–
100,–,"Cc1cc2[nH]c(CCN3CCOCC3)cc2c(-c2ccc(N3CCN(C(C)C)CC3)cc2)n1 [Example B3, 4-[2-[4-[4-(4-isopropylpiperazin-1-yl)phenyl]-6-methyl-1H-pyrrolo[3,2-c]pyridin-2-yl]ethyl]morpholine]",–,–
100,–,"Cc1cc2[nH]c(CCN3CCOCC3)cc2c(-c2ccc(N3CCN(C)CC3)cc2)n1 [Example B4, 4-[2-[6-methyl-4-[4-(4-methylpiperazin-1-yl)phenyl]-1H-pyrrolo[3,2-c]pyridin-2-yl]ethyl]morpholine]",–,–
100,–,"Cc1cc2[nH]c(CCN3CCCCC3)cc2c(-c2ccc(N3CCN(C(C)C)CC3)cc2)n1 [Example B5, 4-[4-(4-isopropylpiperazin-1-yl)phenyl]-6-methyl-2-[2-(1-piperidyl)ethyl]-1H-pyrrolo[3,2-c]pyridine]",–,–
100,–,"Cc1nc(-c2ccc(N3CCN(C)CC3)cc2)c2cc(CCN3CCOCC3)[nH]c2c1C [Example B7, 4-[2-[6,7-dimethyl-4-[4-(4-methylpiperazin-1-yl)phenyl]-1H-pyrrolo[3,2-c]pyridin-2-yl]ethyl]morpholine]",–,–
88,–,"CCN1CCN(c2ccc(-c3nc(C)c(C)c4[nH]c(CCN5CCOCC5)cc34)cc2)CC1 [Example B8, 4-[2-[4-[4-(4-ethylpiperazin-1-yl)phenyl]-6,7-dimethyl-1H-pyrrolo[3,2-c]pyridin-2-yl]ethyl]morpholine]",–,–
100,100,"Cc1nc(-c2ccc(N3CCN(C(C)C)CC3)cc2)c2cc(CCN3CCCC3)[nH]c2c1C [Example B10, 4-[4-(4-isopropylpiperazin-1-yl)phenyl]-6,7-dimethyl-2-(2-pyrrolidin-1-ylethyl)-1H-pyrrolo[3,2-c]pyridine]",–,–
100,100,"Cc1cc2c(cc(CCN3CCOCC3)n2C)c(-c2ccc(N3CCN(C(C)C)CC3)c(F)c2)n1 [Example B14, 4-[2-[4-[3-fluoro-4-(4-isopropylpiperazin-1-yl)phenyl]-1,6-dimethyl-pyrrolo[3,2-c]pyridin-2-yl]ethyl]morpholine]",–,–
83,88,"Cc1cc2c(cc(CCN3CCOCC3)n2C)c(-c2ccc(N3CCN(C(C)C)CC3)cc2C)n1 [Example B15, 4-[2-[4-[4-(4-isopropylpiperazin-1-yl)-2-methyl-phenyl]-1,6-dimethyl-pyrrolo[3,2-c]pyridin-2-yl]ethyl]morpholine]",–,–
100,100,"Cc1cc2c(cc(CCN3CCOCC3)n2C)c(-c2ccc(N3CCN(C(C)C)CC3)c(C)c2)n1 [Example B16, 4-[2-[4-[4-(4-isopropylpiperazin-1-yl)-3-methyl-phenyl]-1,6-dimethyl-pyrrolo[3,2-c]pyridin-2-yl]ethyl]morpholine]",–,–
90,93,"Cc1cc2c(cc(CCN3CCOCC3)n2C)c(-c2ccc(N3CCN(C(C)C)CC3)cc2C(F)(F)F)n1 [Example B17, 4-[2-[4-[4-(4-isopropylpiperazin-1-yl)-2-(trifluoromethyl)phenyl]-1,6-dimethyl-pyrrolo[3,2-c]pyridin-2-yl]ethyl]morpholine]",–,–
100,100,"Cc1cc2c(cc(CCN3CCOCC3)n2C)c(-c2ccc(N3CCN(C(C)C)CC3)c(C(F)(F)F)c2)n1 [Example B18, 4-[2-[4-[4-(4-isopropylpiperazin-1-yl)-3-(trifluoromethyl)phenyl]-1,6-dimethyl-pyrrolo[3,2-c]pyridin-2-yl]ethyl]morpholine]",–,–
100,100,"Cc1cc2c(cc(CCN3CCOCC3)n2C)c(-c2ccc(N3CCN(C(C)C)CC3)cc2F)n1 [Example B19, 4-[2-[4-[2-fluoro-4-(4-isopropylpiperazin-1-yl)phenyl]-1,6-dimethyl-pyrrolo[3,2-c]pyridin-2-yl]ethyl]morpholine]",–,–
57,70,"COc1cc(N2CCN(C(C)C)CC2)ccc1-c1nc(C)cc2c1cc(CCN1CCOCC1)n2C [Example B20, 4-[2-[4-[4-(4-isopropylpiperazin-1-yl)-2-methoxy-phenyl]-1,6-dimethyl-pyrrolo[3,2-c]pyridin-2-yl]ethyl]morpholine]",–,–
